Assay results as given in ChEMBL document CHEMBL4138061, “Structure-activity relationships for the synthesis of selective cyclooxygenase 2 inhibitors: an overview (2009-2016)” (Medchemcomm, 2017).
Blank lines part the entries; values can stand above or below the molecule they belong to.

Legend:
[1] = Selectivity index, ratio of IC50 for ovine COX1 to IC50 for human COX2
[2] = biological target: T1, Prostaglandin G/H synthase 2 (Homo sapiens, UniProt P35354); experiment: Inhibition of human COX2 by fluorescence based assay
T1 sequence (P35354 whole entry): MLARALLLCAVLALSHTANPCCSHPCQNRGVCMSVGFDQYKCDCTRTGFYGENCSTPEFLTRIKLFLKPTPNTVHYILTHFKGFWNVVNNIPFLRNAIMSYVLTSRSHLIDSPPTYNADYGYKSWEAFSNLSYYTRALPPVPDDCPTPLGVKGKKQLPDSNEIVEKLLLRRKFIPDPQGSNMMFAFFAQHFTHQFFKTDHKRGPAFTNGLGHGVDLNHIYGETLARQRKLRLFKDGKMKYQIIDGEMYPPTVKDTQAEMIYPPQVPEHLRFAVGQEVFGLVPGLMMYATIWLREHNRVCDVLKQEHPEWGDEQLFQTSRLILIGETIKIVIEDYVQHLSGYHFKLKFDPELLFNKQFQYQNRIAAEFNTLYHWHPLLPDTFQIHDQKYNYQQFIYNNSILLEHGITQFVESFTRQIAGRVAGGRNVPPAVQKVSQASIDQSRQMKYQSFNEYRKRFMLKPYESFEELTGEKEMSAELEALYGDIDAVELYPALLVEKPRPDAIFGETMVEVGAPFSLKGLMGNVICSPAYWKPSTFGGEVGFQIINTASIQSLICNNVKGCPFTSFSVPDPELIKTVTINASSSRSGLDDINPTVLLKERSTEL

[3] = biological target: T2, Prostaglandin G/H synthase 1 (Ovis aries, UniProt P05979); experiment: Inhibition of ovine COX1 by fluorescence based assay
T2 sequence (P05979 whole entry): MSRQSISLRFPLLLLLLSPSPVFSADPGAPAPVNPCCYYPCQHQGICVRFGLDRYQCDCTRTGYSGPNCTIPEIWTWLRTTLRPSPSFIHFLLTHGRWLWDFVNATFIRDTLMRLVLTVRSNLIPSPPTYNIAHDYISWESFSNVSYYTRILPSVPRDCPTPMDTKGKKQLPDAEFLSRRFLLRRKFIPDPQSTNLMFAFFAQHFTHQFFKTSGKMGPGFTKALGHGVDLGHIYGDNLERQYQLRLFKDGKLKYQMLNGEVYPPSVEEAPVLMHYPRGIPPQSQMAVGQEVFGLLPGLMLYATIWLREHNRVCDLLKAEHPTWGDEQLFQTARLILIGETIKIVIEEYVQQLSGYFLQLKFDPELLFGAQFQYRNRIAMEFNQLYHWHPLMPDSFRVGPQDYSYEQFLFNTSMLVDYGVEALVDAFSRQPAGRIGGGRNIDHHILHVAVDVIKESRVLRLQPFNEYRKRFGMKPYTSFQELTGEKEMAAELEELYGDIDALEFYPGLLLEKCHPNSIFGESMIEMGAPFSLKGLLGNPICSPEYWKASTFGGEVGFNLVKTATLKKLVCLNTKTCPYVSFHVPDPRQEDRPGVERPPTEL

[4] = biological target: T1, Prostaglandin G/H synthase 2; experiment: Inhibition of human recombinant COX2 assessed as reduction in […] production incubated for 10 mins using arachidonic acid substrate by enzyme immuno assay
[5] = biological target: T1, Prostaglandin G/H synthase 2; experiment: Inhibition of COX2 in human lympho-monocytes suspension assessed as reduction in LPS-induced PGE2 production pre-incubated for 30 mins before LPS stimulation for 24 hrs by EIA method; assay type: cell-based
[6] = biological target: T3, Prostaglandin G/H synthase 2 (Ovis aries) (UniProt P79208); settings: 10 ug/ml
T3 sequence (whole entry): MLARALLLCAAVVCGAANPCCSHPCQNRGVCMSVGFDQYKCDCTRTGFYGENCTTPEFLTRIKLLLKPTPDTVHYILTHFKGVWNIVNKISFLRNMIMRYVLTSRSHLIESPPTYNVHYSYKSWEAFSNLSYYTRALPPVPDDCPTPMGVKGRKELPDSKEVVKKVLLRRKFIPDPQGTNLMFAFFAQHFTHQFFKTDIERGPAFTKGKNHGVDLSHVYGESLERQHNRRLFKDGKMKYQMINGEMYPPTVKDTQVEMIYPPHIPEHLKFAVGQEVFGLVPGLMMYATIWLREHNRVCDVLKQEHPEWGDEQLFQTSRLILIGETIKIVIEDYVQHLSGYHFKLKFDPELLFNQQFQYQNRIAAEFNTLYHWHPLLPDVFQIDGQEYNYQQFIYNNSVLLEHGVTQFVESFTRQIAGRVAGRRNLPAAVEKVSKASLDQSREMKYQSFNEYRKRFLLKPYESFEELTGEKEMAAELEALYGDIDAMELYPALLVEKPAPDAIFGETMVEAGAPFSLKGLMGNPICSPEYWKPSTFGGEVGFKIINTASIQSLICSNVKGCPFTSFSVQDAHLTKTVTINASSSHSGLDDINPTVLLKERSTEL
Description: Inhibition of ovine COX2 at 10 ug/ml using arachidonic acid substrate by TMPD dye based colorimetry

[7] = biological target: T4, Prostaglandin G/H synthase 1 (Ovis aries) (UniProt P05979); experiment: Inhibition of ovine COX1 at 10 ug/ml using arachidonic acid substrate by TMPD dye based colorimetry
T4 sequence (whole entry): T2 sequence (P05979 whole entry)

[8] = biological target: T2, Prostaglandin G/H synthase 1; experiment: Inhibition of ovine COX1 using arachidonic acid substrate by TMPD dye based colorimetry
[9] = species on record: Ovis aries; experiment: Selectivity index, ratio of IC50 for ovine COX1 to IC50 for ovine COX2
[10] = biological target: T1, Prostaglandin G/H synthase 2; experiment: Inhibition of human recombinant COX2 by enzyme immuno assay
[11] = biological target: T2, Prostaglandin G/H synthase 1; experiment: Inhibition of ovine recombinant COX1 by enzyme immuno assay
[12] = biological target: T1, Prostaglandin G/H synthase 2; experiment: Inhibition of human COX2 assessed as reduction in PGE2 production incubated for 2 mins using arachidonic acid substrate by enzyme immuno assay
[13] = biological target: T5, Prostaglandin G/H synthase 1 (Homo sapiens, UniProt P23219); experiment: Inhibition of human COX1 assessed as reduction in PGE2 production incubated for 2 mins using arachidonic acid substrate by enzyme immuno assay
[14] = species on record: Homo sapiens; experiment: Selectivity index, ratio of IC50 for human COX1 to IC50 for human COX2
[15] = species on record: Homo sapiens; experiment: Selectivity index, ratio of IC50 for COX1 (unknown origin) to IC50 for COX2 (unknown origin)
[16] = biological target: T1, Prostaglandin G/H synthase 2; experiment: Inhibition of COX2 (unknown origin)
[17] = biological target: T5, Prostaglandin G/H synthase 1; experiment: Inhibition of COX1 (unknown origin)
[18] = biological target: T2, Prostaglandin G/H synthase 1; experiment: Inhibition of ovine COX1 by enzyme chemiluminescence assay
[19] = biological target: T6, Prostaglandin G/H synthase 2 (Ovis aries, UniProt P79208); experiment: Inhibition of ovine COX2 by enzyme chemiluminescence assay
T6 sequence (P79208 whole entry): T3 sequence (whole entry)

T5 sequence (P23219 whole entry): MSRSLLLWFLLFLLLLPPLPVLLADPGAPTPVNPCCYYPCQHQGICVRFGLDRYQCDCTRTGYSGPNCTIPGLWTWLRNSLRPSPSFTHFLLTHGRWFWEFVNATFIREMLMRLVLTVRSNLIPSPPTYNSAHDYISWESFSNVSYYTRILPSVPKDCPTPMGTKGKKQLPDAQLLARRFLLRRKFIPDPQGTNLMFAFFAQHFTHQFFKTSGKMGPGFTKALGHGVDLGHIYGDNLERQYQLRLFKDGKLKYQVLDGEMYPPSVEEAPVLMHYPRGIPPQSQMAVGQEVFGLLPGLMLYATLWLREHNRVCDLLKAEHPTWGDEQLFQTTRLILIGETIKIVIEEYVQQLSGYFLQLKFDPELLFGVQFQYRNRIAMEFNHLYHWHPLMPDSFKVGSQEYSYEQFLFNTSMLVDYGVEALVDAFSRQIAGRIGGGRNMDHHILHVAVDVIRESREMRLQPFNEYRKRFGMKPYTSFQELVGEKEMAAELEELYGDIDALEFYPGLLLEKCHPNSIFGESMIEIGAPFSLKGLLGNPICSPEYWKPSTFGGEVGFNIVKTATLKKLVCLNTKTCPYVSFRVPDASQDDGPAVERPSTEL

Compound: Cc1ccc(-c2c(-c3ccc(S(C)(=O)=O)cc3)c3cccc4ccn2c43)cc1
- Ratio IC50 [1]: > 5000
- IC50 [2]: 20 nM
- IC50 [3]: > 100000 nM

Compound: CS(=O)(=O)c1ccc(C2NN=C(c3ccc([N+](=O)[O-])cc3)O2)cc1 (stereo not given)
- IC50 [4]: 480 nM
- Ratio IC50 [1]: 133

Compound: Cc1ccc(-c2nn(Cc3nnc(-c4ccccc4[N+](=O)[O-])o3)c(=O)c3ccccc23)cc1C
- IC50 [8]: > 50000 nM

Compound: NS(=O)(=O)c1ccc(N2N=C(c3ccc(N4CCOCC4)cc3)CC2c2ccc(F)cc2F)cc1 (stereo not given)
- IC50 [12]: 80 nM
- IC50 [13]: 36100 nM
- Ratio IC50 [14]: 451

Compound: CS(=O)(=O)c1ccc(-c2cc(Cn3ccnc3)c3ccc4c(c3n2)CCCC4)cc1
- IC50 [18]: 34500 nM
- IC50 [19]: 63 nM
- Ratio IC50 [9]: 548

Further lines, results first:

- IC50 [5]: 14 nM
Compound: Cc1ccc(Nc2c(F)cccc2Cl)c(Cc2nnn[nH]2)c1

- inhibition [6]: 76%
- inhibition [7]: 3.92%
- IC50 [8]: 63800 nM
- Ratio IC50 [9]: 133
Compound: Cc1cc(C)c2c(n1)nn1c(/C=C/c3ccc([N+](=O)[O-])cc3)c(C)[nH]c21

- Ratio IC50 [1]: 5.77
- IC50 [10]: 970 nM
- IC50 [11]: 5600 nM
Compound: CCOc1ccc(-c2cc(-c3ccc(C(F)(F)F)cc3)n(-c3ccc(S(C)(=O)=O)cc3)n2)cc1

- Ratio IC50 [15]: 116
- IC50 [16]: 90 nM
- IC50 [17]: 10500 nM
Compound: CS(=O)(=O)c1ccc(C2C(c3ccccc3)=NOC23COc2ccccc2C3=O)cc1 (stereo not given)

- Ratio IC50 [1]: 6.08
- IC50 [10]: 970 nM
Compound: CS(=O)(=O)c1ccc(-n2nc(-c3ccc(O)cc3)cc2-c2ccc(C(F)(F)F)cc2)cc1
